According to publication PMC5778159 (Naunyn-Schmiedeberg's Archives of Pharmacology, 2017):
Counter-ions that a name gives are not always drawn.

Assays:
[1] = Pharmacokinetic study in rats after single i.v. or i.p. tianeptine, non-compartmental analysis; conditions: rat
Method: Male Wistar rats, 13–15 weeks of age and weighing between 200 and 220 g, were used in all the experiments. They were kept under conditions of constant temperature (21–25 °C) and a relative humidity of approximately 40–65% with a standard light/dark cycle. Animals were housed in the stainless steel cages with suspended wire-mesh floors and had free access to water and the commercial rodent chow.
Six rats were used in PK experiments, and 3 days prior to the experiment, rat jugular vein was cannulated allowing for the multiple blood sampling from a single animal. […] Plasma was harvested by centrifuging at 3000 r.p.m. for 10 min and stored at − 30°C until bioanalysis. Plasma samples (100 μL) were further processed as described in “Sample preparation” section.
(§1) Pharmacokinetic parameters were calculated by employing a non-compartmental approach, using Phoenix WinNonlin software v. 6.3 (Pharsight, USA). For i.v. administration, plasma concentration at time zero (C 0) was back-extrapolated using log-linear regression, while the maximum concentration after i.p. administration (C max) and the time to C max (t max) were obtained directly from the concentration-time data. The area under the mean plasma concentration versus time curve extrapolated to infinity (AUC0-inf) was estimated using the log/linear trapezoidal rule. AUMC0-inf was estimated by calculation of the total area under the first-moment curve by combining the trapezoid calculation of AUMC0-t and extrapolated area. The mean residence time (MRT) was calculated from AUMC0-inf/AUC0-inf. The terminal rate constant (λ z) was calculated by log-linear regression of the drug concentration data in the terminal phase and the terminal half-life (t 1/2) was calculated as 0.693/λ z. The systemic clearance (CL) was estimated from the administered dose divided by AUC0-inf. The volume of distribution at steady state (V ss) was calculated from D i.v.⋅AUMC/AUC^2, where D i.v is the dose administered i.v. in mg per kg of body weight. The concentration versus time profiles of the parent drug and metabolite following both routes of administration were also fitted simultaneously to the pharmacokinetic model with a metabolite compartment to obtain one set of parameters. During iteration process, the fraction of dose absorbed (F) was fixed to the value calculated using the following equation:1 F=AUC0−ti.p.∙Di.v./AUC0−ti.v.∙Di.p.
where AUC0-t is the area under the concentration versus time curve calculated to the last measured point and D is the dose administered.

[2] = PK model with a metabolite compartment fitted simultaneously to i.v. and i.p. rat plasma data
Method: as §1

[3] = Isolated perfused rat liver (IPRL) study, recirculating; conditions: for form eliminated with bile: mass spectrometric analysis of rat bile, precursor ion 292 mode
Method: Rat livers were perfused in situ using PS-1 perfusion system from Harvard Apparatus-Hugo Sachs Electronics (HA-HSE). […] The temperature of the perfusion medium was thermostatically controlled at 37 °C. In each experiment, the common bile duct was cannulated with PE-10 tubing. […] Experiments were carried out in a recirculating manner with the total volume of perfusate equal 200 mL. […] Samples of bile were collected in pre-weighed Eppendorf vials and measured by gravimetric volume at the end of perfusion period, assuming a density of 1. Perfusate was collected from the reservoir at 5 min intervals up to 45 min.
Non-compartmental estimates of hepatic pharmacokinetic parameters were determined from the outflow concentration-time profiles. The hepatic extraction ratio (ERH) was calculated according to the following equation:2 ERH=CLH/Q where CLH is a hepatic clearance (per gram of liver) and Q is a perfusate flow (per gram of liver).
The apparent hepatobiliary clearance (CLb,app) was calculated as the cumulative amount of drug excreted in bile divided by the AUC0-t of the drug in the perfusate.

[4] = Stability of analytes in rat plasma (bench top, freezer, freeze/thaw, autosampler); assay type: in vitro ADME; conditions: bench top 2 h, − 30°C 90 days, autosampler 10°C up to 24 h
Method: The stability of analytes was determined in the battery of tests according to the appropriate guidelines. Namely, the bench top stability (for 2 h), freezer stability (at − 30°C for 90 days), freeze/thaw stability and post preparative autosampler stability (at 10°C up to 24 h). Samples were considered to be stable when 85–115% of the initial concentrations were found.

[5] = humans ref Carlhant et al. [1990]; cited from earlier work
[6] = male, Wistar, in vivo, ip, 10 mg/kg
[7] = male, Wistar, in vivo, iv, 1 mg/kg

Compound | time at which C max attained ([1]; after both routes of administration (i.v. and i.p.) of tianeptine) [min] | t 0.5λz ([1]; after tianeptine i.p. 10 mg/kg, GM (90% CI), n = 3) | Cmax [1, 6] [ng/mL] | MRT [1, 6] [h] | Tmax [1, 6] [h] | k el [1, 6] [s⁻¹] | MRT [1, 7] [h] | Tmax [1, 7] [h] | half-life [1, 7] [h] | k el [1, 7] [s⁻¹] | overall exposure (AUC) to MC5 relative to tianeptine ([1]; regardless of the route of administration) [times] | half-life ([2]; male, Wistar, in vivo) [h] | k el ([2]; male, Wistar, in vivo) [s⁻¹] | V m/f m ([2]; metabolite compartment, i.v. and i.p. fitted simultaneously) [L/kg] | metabolic ratio of MC5 (AUC0-t metabolite / AUC0-t tianeptine) ([3]; isolated perfused rat liver, mean ± SD) [%] | form eliminated with bile [3] | percent eliminated into the bile ([3]; up to 45 min of perfusion, mean ± SD) | stability in rat plasma [4] | time to C max [5] [h]
CN1c2ccccc2C(NCCCCC(=O)O)c2ccc(Cl)cc2S1(=O)=O (centres unmarked) [MC5, tianeptine metabolite MC5 sodium salt] | 30 | 3.69 (1.39–9.83) h | 2020 | 4.1 | 0.5 | 5.19e-05 | 8.28 | 0.4 | 7.53 | 2.5e-05 | 1.2 | 1.66 | 0.000116 | 2.971 | 18.76 ± 8.11 | glucuronide and glutamine conjugates | 3.07 ± 0.66 % of the administered dose | no stability related problems | 2.96 ± 0.95
CN1c2ccccc2C(NCCCCCCC(=O)O)c2ccc(Cl)cc2S1(=O)=O (centres unmarked) [Tianeptine, Tianeptine sodium salt, reference compound] | – | – | – | – | – | – | – | – | – | – | – | – | – | – | – | glucuronide and glutamine conjugates | – | – | –
